Laboratory results reported in patent US6326516A, “Acetylenic β-sulfonamido and phosphinic acid amide hydroxamic acid TACE inhibitors” (American Cyanamid Company, priority 2000, dated 2001).
pIC50: −log10 of the molar value. Read-outs that look alike come from different tables or passages of the source.

Key:
MMP-1 = target: T1, MMP-1 (Homo sapiens, UniProt P03956); assay: MMP-1 inhibition (thiopeptide or fluorescent peptide substrate); assay type: biochemical; settings: for IC50: bounds given in uM
T1 sequence (P03956 100-469): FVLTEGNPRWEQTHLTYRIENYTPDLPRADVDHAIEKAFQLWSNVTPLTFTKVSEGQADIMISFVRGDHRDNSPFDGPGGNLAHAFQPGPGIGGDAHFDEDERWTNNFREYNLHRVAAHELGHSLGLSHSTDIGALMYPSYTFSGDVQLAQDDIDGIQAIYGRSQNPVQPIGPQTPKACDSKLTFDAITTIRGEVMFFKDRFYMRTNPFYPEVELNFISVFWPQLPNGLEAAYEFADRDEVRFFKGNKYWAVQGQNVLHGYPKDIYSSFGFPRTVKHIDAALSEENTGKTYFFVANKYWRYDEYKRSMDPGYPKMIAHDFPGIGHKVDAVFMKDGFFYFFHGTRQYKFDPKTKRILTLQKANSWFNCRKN
Method: (§1) The enzyme activity is measured by the rate of the color increase. The thiopeptide substrate is made up fresh as a 20 mM stock in 100% DMSO and the DTNB is dissolved in 100% DMSO as a 100 mM stock and stored in the dark at room temperature. Both the substrate and DTNB are diluted together to 1 mM with substrate buffer (50 mM HEPES pH 7.5, 5 mM CaCl2) before use. The stock of enzyme is diluted with buffer (50 mM HEPES, pH 7.5, 5 mM CaCl2, 0.02% Brij) to the desired final concentration. The buffer, enzyme, vehicle or inhibitor, and DTNB/substrate are added in this order to a 96 well plate (total reaction volume of 200 μl) and the increase in color is monitored spectrophotometrically for 5 minutes at 405 nm on a plate reader and the increase in color over time is plotted as a linear line.
(§2) Alternatively, a fluorescent peptide substrate is used. In this test procedure, the peptide substrate contains a fluorescent group and a quenching group. Upon cleavage of the substrate by an MMP, the fluorescence that is generated is quantitated on the fluorescence plate reader. The assay is run in HCBC assay buffer (50 mM HEPES, pH 7.0, 5 mM Ca^+2, 0.02% Brij, 0.5% Cysteine), with human recombinant MMP-1, MMP-9, or MMP-13. The substrate is dissolved in methanol and stored frozen in 1 mM aliquots. For the assay, substrate and enzymes are diluted in HCBC buffer to the desired concentrations. Compounds are added to the 96 well plate containing enzyme and the reaction is started by the addition of substrate. The reaction is read (excitation 340 nm, emission 444 nm) for 10 min. and the increase in fluorescence over time is plotted as a linear line.
(§3) For either the thiopeptide or fluorescent peptide test procedures, the slope of the line is calculated and represents the reaction rate. The linearity of the reaction rate is confirmed (r^2 >0.85). The mean (x±sem) of the control rate is calculated and compared for statistical significance (p<0.05) with drug-treated rates using Dunnett's multiple comparison test. Dose-response relationships can be generated using multiple doses of drug and IC50 values with 95% CI are estimated using linear regression.

MMP-9 = MMP-9 (Homo sapiens, UniProt P14780); assay: MMP-9 inhibition (thiopeptide or fluorescent peptide substrate); assay type: biochemical; settings: for IC50: bounds given in uM
Method: as §1, §2, §3

MMP-13 = MMP-13 (Homo sapiens, UniProt P45452); assay: MMP-13 inhibition (thiopeptide or fluorescent peptide substrate); assay type: biochemical; settings: for IC50: bounds given in uM
Method: as §1, §2, §3

[1] = target: TNF-α converting enzyme (TACE) (Homo sapiens, UniProt P78536); assay: TACE inhibition (fluorescent peptidyl substrate); assay type: biochemical
Method: Using 96-well black microtiter plates, each well receives a solution composed of 10 μL TACE (fmal concentration 1 μg/mL), 70 μL Tris buffer, pH 7.4 containing 10% glycerol (final concentration 10 mM), and 10 μL of test compound solution in DMSO (final concentration 1 μM, DMSO concentration <1%) and incubated for 10 minutes at room temperature. The reaction is initiated by addition of a fluorescent peptidyl substrate (final concentration 100 μM) to each well and then shaking on a shaker for 5 sec.
The reaction is read (excitation 340 nm, emission 420 nm) for 10 min. and the increase in fluorescence over time is plotted as a linear line. The slope of the line is calculated and represents the reaction rate.
as §3, with “The” for “For either the thiopeptide or fluorescent peptide test procedures, the slope of the line is calculated and represents the reaction rate. The”, “generate” for “generated”

THP-1 cells = assay: Human Monocytic THP-1 Cell Differentiation Assay for Soluble Proteins (THP-1 Soluble Protein Assay); assay type: cell-based
Method: THP-1 cells (from ATCC) are a human monocytic cell line which were obtained from the peripheral blood of a person with acute monocytic leukemia. They can be grown in culture and differentiated into macrophage like cells by stimulation with mitogens.
For the assay, THP-1 cells are seeded from an ATCC stock which was previously grown and frozen back at 5×10^6/ml/vial. One vial is seeded into a T25-flask with 16 mls of RPMI-1640 with glutamax (Gibco) media containing 10% fetal bovine serum, 100 units/ml penicillin, 100 μg/ml streptomycin, and 5×10^-5 M 2-mercapto-ethanol (THP-1 media). Each vial of cells are cultured for about two weeks prior to being used for an assay and then are used for only 4 to 6 weeks to screen compounds. Cells are subcultured on Mondays and Thursdays to a concentration of 1×10^5/ml.
To perform an assay, the THP-1 cells are co-incubated in a 24 well plate with […] of a 24 mg/ml stock of Lipopolysacharide (LPS) (Calbiochem Lot# B13189) at 37° C. in 5% CO2 at a concentration of 1.091×10^6 cells/ml (1.1 ml/well) for a total of 24 hours. At the same time, […] of drug, vehicle or THP-1 media is plated in appropriate wells to give a final volume of 1.2 ml/well. Standard and test compounds are dissolved in DMSO at a concentration of 36 mM and diluted from here to the appropriate concentrations in THP-1 media and added to the wells at the beginning of the incubation period to give final concentrations of […], 300 nM, and 100 nM. Cell exposure to DMSO was limited to 0.1% final concentration. Positive control wells were included in the experiment which had mitogen added but no drug. Vehicle control wells were included as well, which were identical to the positive control wells, except that DMSO was added to give a final concentration of 0.083%. Negative control wells were included in the experiment which had vehicle but no mitogen or drug added to the cells. Compounds can be evaluated for their effect on basal (non-stimulated) shedding of the receptors by replacing the LPS with […] of THP-1 media. Plates are placed into an incubator set at 5% CO2 and at 37° C. After 4 hours of incubation, […] of tissue culture supernatant (TCS) is removed for use in an TNF-α ELISA. Following 24 hours of incubation, […] of TCS is removed and used for analysis in TNF-R p75/80, TNF-R p55/60 and IL-8 ELISAs.
In addition, at the 24 hours timepoint, and the cells for each treatment group are collected by resuspension in 500 μl/well of THP-1 media and transferred into a FACS tube. Two ml/tube of a 0.5 mg/ml stock of propidium iodide (PI) (Boerhinger Mannheim cat. # 1348639) is added. The samples are run on a Becton Dickinson FaxCaliber FLOW cytometry machine and the amount of dye taken up by each cell is measured in the high red wavelength (FL3). Only cells with compromised membranes (dead or dying) can take up PI. The percent of live cells is calculated by the number of cells not stained with PI, divided by the total number of cells in the sample. The viability values calculated for the drug treated groups were compared to the viability value calculated for the vehicle treated mitogen stimulated group ("vehicle positive control") to determine the "percent change from control". This "percent change from control" value is an indicator of drug toxicity.
The quantity of soluble TNF-α, TNF-R p75/80 and TNF-R p55/60 and IL-8 in the TCS of the THP-1 cell cultures are obtained with commercially available ELISAs from R&D Systems, by extrapolation from a standard curve generated with kit standards. The number of cells that either take up or exclude PI are measured by the FLOW cytometry machine and visualized by histograms using commercially available Cytologic software for each treatment group including all controls. […]

Sequence of TNF-α converting enzyme (TACE) (P78536 215-824): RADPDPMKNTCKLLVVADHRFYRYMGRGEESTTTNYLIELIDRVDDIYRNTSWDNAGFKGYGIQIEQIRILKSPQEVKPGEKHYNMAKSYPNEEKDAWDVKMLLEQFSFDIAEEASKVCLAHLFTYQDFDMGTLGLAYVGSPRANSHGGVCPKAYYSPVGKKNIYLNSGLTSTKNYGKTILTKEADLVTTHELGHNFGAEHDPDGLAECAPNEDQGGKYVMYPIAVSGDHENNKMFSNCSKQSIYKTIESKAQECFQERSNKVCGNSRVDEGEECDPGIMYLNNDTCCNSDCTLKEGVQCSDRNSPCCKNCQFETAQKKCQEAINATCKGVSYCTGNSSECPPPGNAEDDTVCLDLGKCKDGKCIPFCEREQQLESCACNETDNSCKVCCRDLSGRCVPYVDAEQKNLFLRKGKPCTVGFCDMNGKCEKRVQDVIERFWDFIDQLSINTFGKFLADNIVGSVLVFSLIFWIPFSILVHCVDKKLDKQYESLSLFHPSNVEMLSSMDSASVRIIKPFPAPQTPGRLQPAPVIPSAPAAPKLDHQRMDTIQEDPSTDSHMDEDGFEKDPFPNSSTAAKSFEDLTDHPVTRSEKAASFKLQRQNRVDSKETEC
Sequence of MMP-9 (P14780 94-707): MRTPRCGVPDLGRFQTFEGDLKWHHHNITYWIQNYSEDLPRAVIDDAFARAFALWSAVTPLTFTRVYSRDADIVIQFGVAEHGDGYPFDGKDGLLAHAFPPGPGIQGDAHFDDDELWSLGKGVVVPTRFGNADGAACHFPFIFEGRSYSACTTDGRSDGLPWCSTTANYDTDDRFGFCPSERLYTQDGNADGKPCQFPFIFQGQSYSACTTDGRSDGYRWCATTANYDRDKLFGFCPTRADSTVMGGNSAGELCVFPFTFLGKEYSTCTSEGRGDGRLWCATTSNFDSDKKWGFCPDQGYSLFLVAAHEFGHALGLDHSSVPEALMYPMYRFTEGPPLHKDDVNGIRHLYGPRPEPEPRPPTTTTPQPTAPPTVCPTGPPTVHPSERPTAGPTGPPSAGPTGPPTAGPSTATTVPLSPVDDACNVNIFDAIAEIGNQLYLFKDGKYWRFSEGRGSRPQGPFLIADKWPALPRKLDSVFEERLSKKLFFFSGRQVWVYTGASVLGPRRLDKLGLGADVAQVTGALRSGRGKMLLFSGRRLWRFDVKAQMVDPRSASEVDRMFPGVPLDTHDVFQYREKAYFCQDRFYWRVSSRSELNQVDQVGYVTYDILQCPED

CC#CCOc1ccc(S(=O)(=O)N[C@H]2CCCC[C@H]2C(=O)NO)cc1 (relative stereo) [Example 32, (Cis)-2-[{[4-(2-butynyloxy)phenyl]sulfonyl}amino)-N-hydroxycyclohexanecarboxamide]
IC50 (MMP-1): > 10 µM
IC50 (MMP-9): ~10 µM
pIC50 (MMP-13): 5.76
pIC50 [1]: 7.44
inhibition at 3 µM (THP-1 cells): 29%

CC#CCOc1ccc(S(=O)(=O)N(C)[C@H]2CCCC[C@H]2C(=O)NO)cc1 (relative stereo) [Example 36, (Cis)-2-[{[4-(2-butynyloxy)phenyl]sulfonyl}(methyl)amino]-N-hydroxycyclohexanecarboxamide]
pIC50 (MMP-1): 5.37
pIC50 (MMP-9): 5.88
pIC50 (MMP-13): 5.74
pIC50 [1]: 7.28
inhibition at 3 µM (THP-1 cells): 23%

CC#CCOc1ccc(S(=O)(=O)N(C)[C@@H]2CCCC[C@H]2C(=O)NO)cc1 [Example 17, (1R,2R)-2-[{[4-(2-Butynyloxy)phenyl]sulfonyl}(methyl)amino]-N-hydroxycyclohexanecarboxamide]
IC50 (MMP-1): > 10 µM
IC50 (MMP-9): > 10 µM
IC50 (MMP-13): > 10 µM
pIC50 [1]: 7.55
inhibition at 3 µM (THP-1 cells): 14%

CC#CCOc1ccc(S(=O)(=O)N[C@@H]2CCCC[C@H]2C(=O)NO)cc1 [Example 18, (1R,2R)-2-({[4-(2-Butynyloxy)phenyl]sulfonyl}amino)-N-hydroxycyclohexanecarboxamide]
IC50 (MMP-1): > 10 µM
IC50 (MMP-9): > 10 µM
IC50 (MMP-13): > 10 µM
pIC50 [1]: 7.21
inhibition at 3 µM (THP-1 cells): 1%

CC#CCOc1ccc(S(=O)(=O)NCCC(=O)NO)cc1 [Example 21, 3-({[4-(2-Butynyloxy)phenyl]sulfonyl}amino)-N-hydroxypropanamide]
pIC50 [1]: 6.84
inhibition at 3 µM (THP-1 cells): 0%

CC#CCOc1ccc(S(=O)(=O)N(C)CCC(=O)NO)cc1 [Example 24, 3-({[4-(2-Butynyloxy)phenyl]sulfonyl}(methyl)amino)-N-hydroxypropanamide]
pIC50 [1]: 7.14
inhibition at 3 µM (THP-1 cells): 9%

CC#CCOc1ccc(S(=O)(=O)N[C@H]2CCC[C@H]2C(=O)NO)cc1 [Example 26]
IC50 (MMP-1): > 1 µM
pIC50 (MMP-9): 5.30
pIC50 (MMP-13): 6.17
pIC50 [1]: 7.82
inhibition at 3 µM (THP-1 cells): 23%

CC#CCOc1ccc(S(=O)(=O)N(C)[C@H]2CCC[C@H]2C(=O)NO)cc1 [Example 30, (1R,2S)-2-[{[4-(2-Butynyloxy)phenyl]sulfonyl}(methyl)amino]N-hydroxycyclopentanecarboxamide]
pIC50 (MMP-1): 5.56
pIC50 (MMP-9): 6.42
pIC50 (MMP-13): 6.51
pIC50 [1]: 7.85
inhibition at 3 µM (THP-1 cells): 65%

CC#CCOc1ccc(S(=O)(=O)NC2C3CCC(C3)C2C(=O)NO)cc1 [Example 38, (1R,2R,3S,4R)-(Cis)-3-({[4-(2-butynyloxy)phenyl]sulfonyl}amino)-N-hydroxybicyclo[2.2.1]heptane-2-carboxamide]
IC50 (MMP-1): > 10 µM
IC50 (MMP-9): > 10 µM
IC50 (MMP-13): ~10 µM
pIC50 [1]: 7.52
inhibition at 3 µM (THP-1 cells): 9%

CC#CCOc1ccc(S(=O)(=O)N(C)C2C3CCC(C3)C2C(=O)NO)cc1 [Example 42, (1R,2R,3S,4R)-(Cis)-3-({[4-(2-butynyloxy)phenyl]sulfonyl}(methyl)amino)-N-hydroxybicyclo[2.2.1]heptane-2-carboxamide]
IC50 (MMP-1): ~10 µM
pIC50 (MMP-13): 5.94
pIC50 [1]: 7.21
inhibition at 3 µM (THP-1 cells): 77%
